In patent publication US9580463B2 (BRISTOL-MYERS SQUIBB COMPANY, priority 2013, dated 2017) one finds EC50 data, which are given here for twelve compounds.

The test system of assay [1] is HCV genotype 1b (Con1) replicon in HUH-7 cells. Kind of assay: HCV replicon luciferase reporter assay, genotype 1b. It counts as cell-based. As to conditions: Hepatitis C virus, 72 h, genotype 1b replicon, 3 days incubation. The method, boiled down: (§1)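 Twenty-point, threefold compound titrations (0.5% DMSO) were incubated 3 days at 37 °C with 3.0×10^3 HUH-7 cells/well in 4% FCS. The cells stably carried luciferase replicons: genotype 1b Con1 (S1179I) or 1a H77 (NS3 P1496L, NS5A S2204I). Renilla signal was read after 2 h with 7.5 μM EnduRen, and EC50 was taken from a four-parameter logistic fit. Cytotoxicity (CC50) was measured by Cell Titer-Blue, 8 h.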

In assay [2] the test system is HCV genotype 1a (H77 strain) replicon in HUH-7 cells. Kind of assay: HCV replicon luciferase reporter assay, genotype 1a. It counts as cell-based. As to conditions: Hepatitis C virus, 72 h, genotype 1a replicon, 3 days incubation. The method, boiled down: as §1

Like-named read-outs stand apart in the source and are kept apart here.

`COC[C@@H]1C[C@@H](C)CC/C=C\[C@@H]2C[C@@]2(C(=O)NS(=O)(=O)C2(C)CC2)NC(=O)[C@@H]2C[C@@H](Oc3nccc4cc(OC)ccc34)CN2C(=O)[C@H]1NC(=O)OC(C)(C)C` [Compound 1006, tert-butyl ((2R,6S,7R,9S,13aS,14aR,16aS,Z)-2-((6-methoxyisoquinolin-1-yl)oxy)-7-(methoxymethyl)-9-methyl-14a-(((1-methylcyclopropyl)sulfonyl)carbamoyl)-5,16-dioxo-1,2,3,5,6,7,8,9,10,11,13a,14,14a,15,16,16a-hexadecahydrocyclopropa[e]pyrrolo[1,2-a][1,4]diazacyclopentadecin-6-yl)carbamate]: the EC50 lay within 1.01 to 5 nM in assay [1] (read-out: LE_1b (EC50, range)) and 5.01 to 35 nM in assay [2] (read-out: LE_1a (EC50, range)).

`COC[C@@H]1C[C@H](C)CC/C=C\[C@@H]2C[C@@]2(C(=O)NS(=O)(=O)C2CC2)NC(=O)[C@@H]2C[C@@H](Oc3nccc4cc(OC)ccc34)CN2C(=O)[C@H]1NC(=O)OC(C)(C)C` [Compound 1009, tert-butyl ((2R,6S,7R,9R,13aS,14aR,16aS,Z)-14a-((cyclopropylsulfonyl)carbamoyl)-2-((6-methoxyisoquinolin-1-yl)oxy)-7-(methoxymethyl)-9-methyl-5,16-dioxo-1,2,3,5,6,7,8,9,10,11,13a,14,14a,15,16,16a-hexadecahydrocyclopropa[e]pyrrolo[1,2-a][1,4]diazacyclopentadecin-6-yl)carbamate]: the EC50 in assay [1] (read-out: LE_1b (EC50, range)) is 1.01 to 5 nM; in assay [2] (read-out: LE_1a (EC50, range)), 1.01 to 5 nM.

For `COC[C@@H]1C[C@H](C)CC/C=C\[C@@H]2C[C@@]2(C(=O)NS(=O)(=O)C2(C)CC2)NC(=O)[C@@H]2C[C@@H](Oc3nc4cc(OC)ccc4nc3C(F)(F)F)CN2C(=O)[C@H]1NC(=O)OC(C)(C)C` [Compound 1028, tert-butyl ((2R,6S,7R,9R,13aS,14aR,16aS,Z)-2-((7-methoxy-3-(trifluoromethyl)quinoxalin-2-yl)oxy)-7-(methoxymethyl)-9-methyl-14a-(((1-methylcyclopropyl)sulfonyl)carbamoyl)-5,16-dioxo-1,2,3,5,6,7,8,9,10,11,13a,14,14a,15,16,16a-hexadecahydrocyclopropa[e]pyrrolo[1,2-a][1,4]diazacyclopentadecin-6-yl)carbamate], the EC50 in assay [1] (read-out: LE_1b (EC50, range)) is 0.1 to 0.5 nM; in assay [2] (read-out: LE_1a (EC50, range)), 0.51 to 1 nM.

`COC[C@@H]1C[C@@H](C)CC/C=C\[C@@H]2C[C@@]2(C(=O)NS(=O)(=O)C2CC2)NC(=O)[C@@H]2C[C@@H](Oc3nccc4cc(OC)ccc34)CN2C(=O)[C@H]1NC(=O)OC(C)(C)C(F)(F)F` [Compound 1018, 1,1,1-trifluoro-2-methylpropan-2-yl ((2R,6S,7R,9S,13aS,14aR,16aS,Z)-14a-((cyclopropylsulfonyl)carbamoyl)-2-((6-methoxyisoquinolin-1-yl)oxy)-7-(methoxymethyl)-9-methyl-5,16-dioxo-1,2,3,5,6,7,8,9,10,11,13a,14,14a,15,16,16a-hexadecahydrocyclopropa[e]pyrrolo[1,2-a][1,4]diazacyclopentadecin-6-yl)carbamate]: the EC50 in assay [1] (read-out: LE_1b (EC50, range)) lay within 1.01 to 5 nM; in assay [2] (read-out: LE_1a (EC50, range)), 1.01 to 5 nM.

For `COC[C@@H]1C[C@@H](C)CC/C=C\[C@@H]2C[C@@]2(C(=O)NS(=O)(=O)C2(C)CC2)NC(=O)[C@@H]2C[C@@H](Oc3ncc(OC)c4ccccc34)CN2C(=O)[C@H]1NC(=O)OC(C)(C)C(F)(F)F` [Compound 1017, 1,1,1-trifluoro-2-methylpropan-2-yl ((2R,6S,7R,9S,13aS,14aR,16aS,Z)-2-((4-methoxyisoquinolin-1-yl)oxy)-7-(methoxymethyl)-9-methyl-14a-(((1-methylcyclopropyl)sulfonyl)carbamoyl)-5,16-dioxo-1,2,3,5,6,7,8,9,10,11,13a,14,14a,15,16,16a-hexadecahydrocyclopropa[e]pyrrolo[1,2-a][1,4]diazacyclopentadecin-6-yl)carbamate], the EC50 was in the range of 0.51 to 1 nM in assay [1] (read-out: LE_1b (EC50, range)) and 1.01 to 5 nM in assay [2] (read-out: LE_1a (EC50, range)).

`COC[C@@H]1C[C@@H](C)CC/C=C\[C@@H]2C[C@@]2(C(=O)NS(=O)(=O)C2CC2)NC(=O)[C@@H]2C[C@@H](Oc3ncc(OC)c4ccccc34)CN2C(=O)[C@H]1NC(=O)OC(C)(C)C` [Compound 1004, tert-butyl ((2R,6S,7R,9S,13aS,14aR,16aS,Z)-14a-((cyclopropylsulfonyl)carbamoyl)-2-((4-methoxyisoquinolin-1-yl)oxy)-7-(methoxymethyl)-9-methyl-5,16-dioxo-1,2,3,5,6,7,8,9,10,11,13a,14,14a,15,16,16a-hexadecahydrocyclopropa[e]pyrrolo[1,2-a][1,4]diazacyclopentadecin-6-yl)carbamate]: the EC50 in assay [1] (read-out: LE_1b (EC50, range)) fell in the range of 1.01 to 5 nM; in assay [2] (read-out: LE_1a (EC50, range)) it was 1.01 to 5 nM.

Regarding `COC[C@@H]1C[C@H](C)CC/C=C\[C@@H]2C[C@@]2(C(=O)NS(=O)(=O)C2CC2)NC(=O)[C@@H]2C[C@@H](Oc3nccc4cc(OC)ccc34)CN2C(=O)[C@H]1NC(=O)OC(C)(C)C(F)(F)F` [Compound 1019, 1,1,1-trifluoro-2-methylpropan-2-yl ((2R,6S,7R,9R,13aS,14aR,16aS,Z)-14a-((cyclopropylsulfonyl)carbamoyl)-2-((6-methoxyisoquinolin-1-yl)oxy)-7-(methoxymethyl)-9-methyl-5,16-dioxo-1,2,3,5,6,7,8,9,10,11,13a,14,14a,15,16,16a-hexadecahydrocyclopropa[e]pyrrolo[1,2-a][1,4]diazacyclopentadecin-6-yl)carbamate], the EC50 fell in the range of 0.51 to 1 nM in assay [1] (read-out: LE_1b (EC50, range)) and 1.01 to 5 nM in assay [2] (read-out: LE_1a (EC50, range)).

As to `COC[C@@H]1CCCC/C=C\[C@@H]2C[C@@]2(C(=O)NS(=O)(=O)C2CC2)NC(=O)[C@@H]2C[C@@H](Oc3nc4cc(OC)ccc4nc3C(F)(F)F)CN2C(=O)[C@H]1NC(=O)OC(C)(C)C` [Compound 1020, tert-butyl ((2R,6S,7R,13aS,14aR,16aS,Z)-14a-((cyclopropylsulfonyl)carbamoyl)-2-((7-methoxy-3-(trifluoromethyl)quinoxalin-2-yl)oxy)-7-(methoxymethyl)-5,16-dioxo-1,2,3,5,6,7,8,9,10,11,13a,14,14a,15,16,16a-hexadecahydrocyclopropa[e]pyrrolo[1,2-a][1,4]diazacyclopentadecin-6-yl)carbamate], the EC50 in assay [1] (read-out: LE_1b (EC50, range)) fell in the range of 0.51 to 1 nM; in assay [2] (read-out: LE_1a (EC50, range)) it was 1.01 to 5 nM.

On to `COC[C@@H]1C[C@@H](C)CC/C=C\[C@@H]2C[C@@]2(C(=O)NS(=O)(=O)C2(C)CC2)NC(=O)[C@@H]2C[C@@H](Oc3nc4cc(OC)ccc4nc3C(C)C)CN2C(=O)[C@H]1NC(=O)OC(C)(C)C` [Compound 1029, tert-butyl ((2R,6S,7R,9S,13aS,14aR,16aS,Z)-2-((3-isopropyl-7-methoxyquinoxalin-2-yl)oxy)-7-(methoxymethyl)-9-methyl-14a-(((1-methylcyclopropyl)sulfonyl)carbamoyl)-5,16-dioxo-1,2,3,5,6,7,8,9,10,11,13a,14,14a,15,16,16a-hexadecahydrocyclopropa[e]pyrrolo[1,2-a][1,4]diazacyclopentadecin-6-yl)carbamate], for which the EC50 in assay [1] (read-out: LE_1b (EC50)) was 0.63 nM; in assay [1] (read-out: LE_1b (EC50, range)), 0.51 to 1 nM; in assay [2] (read-out: LE_1a (EC50)) it was 1.78 nM; in assay [2] (read-out: LE_1a (EC50, range)) it was 1.01 to 5 nM.

In the case of `COC[C@@H]1C[C@H](C)CC/C=C\[C@@H]2C[C@@]2(C(=O)NS(=O)(=O)C2CC2)NC(=O)[C@@H]2C[C@@H](Oc3ncc(OC)c4ccccc34)CN2C(=O)[C@H]1NC(=O)OC(C)(C)C(F)(F)F` [Compound 1012, 1,1,1-trifluoro-2-methylpropan-2-yl ((2R,6S,7R,9R,13aS,14aR,16aS,Z)-14a-((cyclopropylsulfonyl)carbamoyl)-2-((4-methoxyisoquinolin-1-yl)oxy)-7-(methoxymethyl)-9-methyl-5,16-dioxo-1,2,3,5,6,7,8,9,10,11,13a,14,14a,15,16,16a-hexadecahydrocyclopropa[e]pyrrolo[1,2-a][1,4]diazacyclopentadecin-6-yl)carbamate], the EC50 fell in the range of 0.1 to 0.5 nM in assay [1] (read-out: LE_1b (EC50, range)) and 0.51 to 1 nM in assay [2] (read-out: LE_1a (EC50, range)).

Take `COC[C@@H]1C[C@H](C)CC/C=C\[C@@H]2C[C@@]2(C(=O)NS(=O)(=O)C2(C)CC2)NC(=O)[C@@H]2C[C@@H](Oc3nc4cc(OC)ccc4nc3C(F)(F)F)CN2C(=O)[C@H]1NC(=O)OC(C)(C)C(F)(F)F` [Compound 1032, 1,1,1-trifluoro-2-methylpropan-2-yl ((2R,6S,7R,9R,13aS,14aR,16aS,Z)-2-((7-methoxy-3-(trifluoromethyl)quinoxalin-2-yl)oxy)-7-(methoxymethyl)-9-methyl-14a-(((1-methylcyclopropyl)sulfonyl)carbamoyl)-5,16-dioxo-1,2,3,5,6,7,8,9,10,11,13a,14,14a,15,16,16a-hexadecahydrocyclopropa[e]pyrrolo[1,2-a][1,4]diazacyclopentadecin-6-yl)carbamate]: the EC50 in assay [1] (read-out: LE_1b (EC50, range)) is 0.1 to 0.5 nM; in assay [2] (read-out: LE_1a (EC50, range)), 0.51 to 1 nM.

For `COC[C@@H]1C[C@H](C)CC/C=C\[C@@H]2C[C@@]2(C(=O)NS(=O)(=O)C2CC2)NC(=O)[C@@H]2C[C@@H](Oc3ncc(OC)c4ccccc34)CN2C(=O)[C@H]1NC(=O)OC(C)(C)C` [Compound 1003, tert-butyl ((2R,6S,7R,9R,13aS,14aR,16aS,Z)-14a-((cyclopropylsulfonyl)carbamoyl)-2-((4-methoxyisoquinolin-1-yl)oxy)-7-(methoxymethyl)-9-methyl-5,16-dioxo-1,2,3,5,6,7,8,9,10,11,13a,14,14a,15,16,16a-hexadecahydrocyclopropa[e]pyrrolo[1,2-a][1,4]diazacyclopentadecin-6-yl)carbamate], the EC50 fell in the range of 0.1 to 0.5 nM in assay [1] (read-out: LE_1b (EC50, range)) and 0.51 to 1 nM in assay [2] (read-out: LE_1a (EC50, range)).
